Experimental data published in PMC10541456, “A phase I, single‐center, open‐label study to investigate the absorption, distribution, metabolism and excretion of encorafenib following a single oral dose of 100 mg [ ^14C] encorafenib in healthy male subjects” (Pharmacology Research & Perspectives, 2023).
Several values for one entry are separate records, joined by “and”; a condition that tells them apart may be missing. Identical values can stand only once.

Key:
[1] = parameters: method as in data on file; details: in vitro study; ref data on file; cited from earlier work
CYP2D6 = tested on: CYP2D6; parameters: method as in earlier work; details: cited from earlier work
[2] = Total radioactivity PK in whole blood; format: in vivo, human
Procedure: Venous blood samples (18 mL/time point) were collected by either direct venipuncture or from an indwelling cannula inserted into a vein of the forearm into tubes containing potassium ethylene diamine tetra acetic acid (K2‐EDTA) at the following times for metabolite characterization, total radioactivity and parent drug analysis: Pre‐dose, 0.5, 1, 1.5, 2, 3, 4, 6, 8, 12, 24, 48, 72, 96, 120 and 144 h post‐dose. Urine samples were collected into pre‐weighed, uniquely labeled containers pre‐dose (before drug administration) and at the following intervals: 0–4, 4–8, 8–24, 24–48, 48–72, 72–96, 96–120 and 120–144 h post‐dose. Feces samples were collected quantitatively into uniquely labeled, polypropylene containers pre‐dose (before drug administration) and individually until 144 h post‐dose. Urine and feces samples were frozen at −20°C and blood samples at −70°C.
Analysis of total radioactivity data in plasma, blood, feces, and urine was performed by Covance Laboratories Inc. All sample combustions were performed in a Model 307 Sample Oxidizer (Packard Instrument Company) and the resulting ^14CO2 was trapped in a mixture of Perma Fluor™ (Perkin Elmer) and Carbo Sorb® (Perkin Elmer). Oxidation efficiency was evaluated on each day of sample combustion by analyzing a commercial radiolabeled standard both directly in a scintillation cocktail and by oxidation. […] EcoLite™(+) scintillation cocktail was used for samples analyzed directly. All samples were analyzed for radioactivity in Model 2900TR or 2910TR liquid scintillation counters (Packard Instrument Company) for at least 5 min or 100 000 counts. Each sample was homogenized or mixed before radioanalysis (unless the entire sample was used for analysis). All samples were analyzed in duplicate or triplicate, as applicable, if sample size allowed. If results from sample replicates (calculated as ^14C disintegrations per minute (dpm)/g sample) differed by more than 10% from the mean value and sample aliquots had radioactivity greater than 200 dpm, the sample was re‐homogenized or remixed and reanalyzed (if the sample size permitted).
Blood samples were mixed and duplicate aliquots of each (approximately 0.4 g) were combusted and analyzed by liquid scintillation […]. Plasma and urine samples were separately mixed and duplicate weighed aliquots of each (approximately 0.4 g for plasma and 0.2 g for urine) were analyzed directly by LSC. Urine volumes provided by the Covance clinical research unit were entered as a weight assuming a specific gravity of 1 g/mL. Feces samples were analyzed individually (samples were not combined by interval) and the weight of each individual sample was recorded. A weighed amount of methanol:water (20:80, v:v; approximately 2 to 3 times the sample weight, such that the homogenate weight:sample weight ratio was approximately 3 to 4) was added and the sample was mixed and homogenized using a probe type homogenizer. Triplicate‐weighed aliquots (approximately 0.2 g) were combusted and analyzed by LSC. The empty treatment vial from each subject was analyzed by adding a weighed amount of methanol to each vial and analyzing duplicate weighed aliquots (approximately 0.5 g) of each extract by LSC. Residual radioactivity recovered from each treatment vial was subtracted from the dose administered to the appropriate subject.
The total radioactivity in blood and plasma was determined by LSC. Nominal sampling time points were used for deriving total radioactivity blood and plasma PK data. PK parameters (maximum concentration (C max), time to maximum concentration (T max), terminal half‐life(t 1/2) time to last measurable concentration (T last), area under the curve to the last measurable time point (AUClast), area under the curve extrapolated to infinity (AUCinf)) describing blood and plasma total radioactivity were determined using non‐compartmental methods via WinNonlin® Professional (Version 6.3, Pharsight). […]

[3] = whole blood, Median (Minimum–Maximum)

**Q.** With `COC(=O)N[C@@H](C)CNc1nccc(-c2cn(C(C)C)nc2-c2cc(Cl)cc(NS(C)(=O)=O)c2F)n1` [encorafenib] as the compound, how does the “[blood]/[plasma] in vitro” value [1] read?
**A.** 0.75 ± 0.21

**Q.** What about the “Contribution of CYP2D6 to metabolism” value (CYP2D6) of the same compound?
**A.** 1%

**Q.** What about the “[blood]:[plasma] AUC ratio for total radioactivity” value ([2]; mean) of the same compound?
**A.** 0.58

**Q.** And the “[blood]/[plasma] total radioactivity, 1 to 24 h post-dose” value ([2]; mean (SD))?
**A.** 0.59 [0.02]

**Q.** What about the “AUCinf, total radioactivity” value ([2]; whole blood, Mean (SD)) of the same compound?
**A.** 8950 (1310) ngEq*h/mL

**Q.** What about the “Cmax, total radioactivity” value ([2]; whole blood, Mean (SD)) of the same compound?
**A.** 1330 (103) ngEq/mL

**Q.** And the “T1/2, total radioactivity” value ([2]; whole blood, Mean (SD))?
**A.** 4.8 h and 4.8 (0.48) h

**Q.** And the “AUCinf, total radioactivity” value [2, 3]?
**A.** 8760 (7670–10 600) ngEq*h/mL

**Q.** What about the “Cmax, total radioactivity” value [2, 3] of the same compound?
**A.** 1320 (1230–1460) ngEq/mL

**Q.** What about the “T1/2, total radioactivity” value [2, 3] of the same compound?
**A.** 4.6 (4.5–5.5) h

**Q.** What about the “Tmax, total radioactivity” value [2, 3] of the same compound?
**A.** 1.0 h
